Assay results reported in ChEMBL document CHEMBL1811819, “Ethyl malonate amides: a diketo acid offspring fragment for HIV integrase inhibition” (Bioorg Med Chem, 2011).

target: T1, Human immunodeficiency virus type 1 integrase (Human immunodeficiency virus 1, UniProt Q7ZJM1); assay: Inhibition of HIV1 recombinant integrase 3'-processing and strand transfer activity using 21-mer U5B/U5A duplex oligonucleotides after 1 hr; details: not given
T1 sequence (Q7ZJM1 whole entry): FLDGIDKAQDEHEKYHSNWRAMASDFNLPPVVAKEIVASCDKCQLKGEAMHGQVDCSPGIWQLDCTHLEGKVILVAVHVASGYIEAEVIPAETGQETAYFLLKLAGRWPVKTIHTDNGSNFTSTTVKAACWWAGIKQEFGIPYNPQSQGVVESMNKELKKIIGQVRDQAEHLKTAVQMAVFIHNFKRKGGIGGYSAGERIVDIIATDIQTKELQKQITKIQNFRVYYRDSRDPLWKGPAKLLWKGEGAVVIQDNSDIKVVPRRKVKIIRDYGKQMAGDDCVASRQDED

| SMILES | IC50 |
| --- | --- |
| CCOC(=O)CC(=O)Nc1ccccc1[N+](=O)[O-] | Not Active |
| CCOC(=O)CC(=O)Nc1ccc(C)cc1[N+](=O)[O-] | Not Active |

same assay, conditions: read-out: IC50

| SMILES | IC50 [µM] |
| --- | --- |
| CCOC(=O)CC(=O)NCc1ccc(F)cc1 | > 100 |
| CCOC(=O)CC(=O)Nc1ccc2cccc(O)c2n1 | 42 |
| CCOC(=O)CC(=O)Nc1cc(C(=O)O)ccc1O | > 300 |
| CCOC(=O)CC(=O)Nc1c(Cl)cccc1Cl | > 100 |
| CCOC(=O)CC(=O)NS(=O)(=O)c1ccc(C)cc1 | 500 |
| CCOC(=O)CC(=O)Nc1ccc(C(=O)O)cc1 | 2 |
| Cc1ccc(NC(=O)CC(=O)O)c([N+](=O)[O-])c1 | > 100 |
| CCOC(=O)CC(=O)Nc1ccc(C)cc1 | 50 |

target: T1, Human immunodeficiency virus type 1 integrase; assay: Inhibition of HIV1 integrase; details: not given

| SMILES | IC50 [µM] |
| --- | --- |
| Cc1ccc2c(O)c(C(=O)O)ccc2n1 | 47 |
| Cc1ccc2ccc(C(=O)O)c(O)c2n1 | > 100 |
